What was measured:
[1] = pH of a 2 mass% aqueous solution; type: physicochemical
[2] = test system: SD rats; test: 45Ca level in blood plasma after oral 45Ca calcium chloride in rats fed the test diet for 10 days (intestinal calcium absorption capacity); type: in vivo; settings: test diet (1.88 mass% in feed, 15 g/day, 10 days) vs control diet; 24 h fast; plasma 30 minutes, 1 hour and 2 hours after oral ^45Ca calcium chloride; Scheffe method, significant level less than 1%
Procedure: Rats (8-week-old, male, SD rats), 10 rats consisting of one group, were each fed with 15 g/day of a control diet or a glucose 1-phosphate sodium salt diet as shown in Table 1 for 10 days. As the glucose 1-phosphate sodium salt, product of Solchem (Italy) was employed and the feed was adjusted to have a calcium concentration of 0.2 mass% and a P concentration of 0.4 mass%. The rats were allowed to take distilled water ad libitum.
After the rats were fasted for 24 hours, they were orally administered with 1.5 mL (containing ^45CalµCi), per average weight, of a 1 mg/mL calcium chloride solution containing ^45Ca singly. The blood plasma was obtained from about 0.5 mL of the blood collected from their carotid artery 30 minutes, 1 hour and 2 hours after administration. The ^45Ca level in 100 µL of the blood plasma was measured by a liquid scintillation counter.
A change in the ^45Ca level in 100 µL of the blood plasma separated from the […] 30 minutes, 1 hour and 2 hours after the administration of a ^45Ca-containing calcium chloride solution was statically analyzed by the Scheffe method. […]

[3] = test system: SD rats; test: duration of the intestinal calcium absorption capacity improving effect after feeding is terminated (45Ca level in plasma); type: in vivo; settings: test diet 10 days, then control diet; for 3 days after termination; relative to the control group
Excerpt: As in Example 1, 15 g/day of a control diet and a test diet as shown in Table 1 were fed to groups of rats (8-week-old, male, SD rats), each group consisting of 8 rats, for 10 days, respectively. The rat groups fed with the test diet were divided into three groups and as the feed after 10 days, the control diet was fed to each group and feeding of the glucose 1-phosphate sodium salt was terminated. The termination period was 1 day, 3 days and 7 days. The ^45Ca level in the blood plasma after completion of the feeding period was measured in accordance with the method of Example 1.

Compound	pH of a 2 mass% aqueous solution [1]	^45Ca level in the blood plasma [2]	^45Ca level in the plasma after feeding was terminated [3]
glucose 1-phosphate sodium salt	about 8.0	statistically significant increase	significant increase
O=P(O)(O)OC1O[C@H](CO)[C@@H](O)[C@H](O)[C@H]1O (stereo partly shown) [Glucose-1-phosphoric acid, reference compound]	1.5		

— patent EP1477171A1, “Intestinal mineral absorption capacity improver” (Kao Corporation, priority 2003, dated 2004)
